Patent US10689341B2, “Small molecule N-(alpha-peroxy) indole compounds and methods of use” (King Abdullah University of Science and Technology, priority 2016, dated 2020)

Experiment: Stability in CDC13 in the NMR tube at room temperature
Assay type: physicochemical
Conditions: decomposed in one day

stability in CDC13: not be stable
Structure (SMILES): COc1ccc2c(c1)c(CCNC(C)=O)cn2C(CC(C)C)OOC(C)(C)CC(OC(C)=O)OC(C)=O (stereo not shown) [Compound 7]
